# Test results reported in patent US20080069776A1, “HISTOFLUORESCENT STAIN FOR ENDOSCOPY” (PENTAX CORPORATION, priority 2006, published 2008).
# How the values were obtained:
# [1] = Absorbance and fluorescence spectra of the dye in distilled water (spectrophotometer / fluorescence spectrophotometer); format: physicochemical; details: for maximum absorption wavelength / maximum fluorescence wavelength / maximum excitation wavelength: 0.001 mg/mL in distilled water; for maximum absorption wavelength: absorbance measured 200 to 750 nm; for maximum fluorescence wavelength: excited at maximum absorption wavelength; for maximum fluorescence wavelength / maximum excitation wavelength: fluorescence spectrophotometer; for fluorescence in solution state: stain prepared as a solution, red wavelength region
# Method: Brilliant Green (manufactured by Sigma-Aldrich Company, B4014-25G) was adjusted with distilled water to a concentration of 0.001 mg/mL, and the light absorbance was continuously measured over a wavelength range from 200 to 750 nm using a spectrophotometer (manufactured by Shimadzu Corporation, BioSpec-1600) to determine the wavelength at which the absorption was the maximum. The maximum absorption wavelength of 625 nm thus obtained was irradiated as an excitation wavelength, and the wavelength of the scattered light detected in the perpendicular direction to the light axis of the excitation light was measured using a fluorescence spectrophotometer (manufactured by Shimadzu Corporation, RF-1500), thus to obtain a maximum fluorescence wavelength of 625 nm. The maximum excitation wavelength measured using this fluorescence spectrophotometer was 627 nm.
# This implies that the compound is not undergoing the process of excitation by an irradiated light and emission of fluorescence.
# As a comparison to Brilliant Green, the wavelength pattern of Rhodamine B, which stains the inner part of cells in the lumen of the large intestine or the like in the same manner as Brilliant Green does, was measured.
# [2] = target: T1, Albumin (from Bovine Serum, Globulin Free) (Bos taurus, UniProt P02769); experiment: Fluorescence spectrum of liquid mixture of Brilliant Green and albumin; format: physicochemical
# T1 construct: Albumin (from Bovine Serum, Globulin Free); purchased Wako Pure Chemical Industries, Ltd. 013-15104; host or cells: bovine serum
# T1 sequence (P02769 25-607): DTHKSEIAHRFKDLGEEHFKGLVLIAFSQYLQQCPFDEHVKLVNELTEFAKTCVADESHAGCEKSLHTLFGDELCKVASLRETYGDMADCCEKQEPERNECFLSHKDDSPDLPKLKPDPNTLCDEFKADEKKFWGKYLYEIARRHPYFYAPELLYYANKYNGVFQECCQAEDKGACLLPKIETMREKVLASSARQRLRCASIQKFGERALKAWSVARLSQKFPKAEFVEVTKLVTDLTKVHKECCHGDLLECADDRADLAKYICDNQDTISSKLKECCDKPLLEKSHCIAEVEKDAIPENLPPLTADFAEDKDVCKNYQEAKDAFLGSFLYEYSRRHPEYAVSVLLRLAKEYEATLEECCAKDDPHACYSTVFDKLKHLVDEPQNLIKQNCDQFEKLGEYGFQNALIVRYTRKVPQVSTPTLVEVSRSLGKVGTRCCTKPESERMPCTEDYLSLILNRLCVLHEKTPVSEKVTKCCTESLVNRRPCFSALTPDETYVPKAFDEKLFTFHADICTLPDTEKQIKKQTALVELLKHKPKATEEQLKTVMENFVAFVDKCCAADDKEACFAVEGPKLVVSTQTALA
# Method: Brilliant Green (manufactured by Sigma-Aldrich Company, B4014-25G) was prepared as a solution at 0.1 mg/mL using distilled water. Albumin (from Bovine Serum, Globulin Free; Wako Pure Chemical Industries, Ltd., 013-15104) was prepared as a solution at 2.0 mg/mL using physiological saline. Using a 0.1 M phosphate buffer solution (pH 5) and the 2.0 mg/mL albumin solution prepared above, a liquid mixture of 0.01 mg/mL Brilliant Green and albumin was prepared. The maximum absorption wavelength of Brilliant Green of 625 nm was irradiated as the excitation wavelength, and the wavelength of the scattered light detected in the perpendicular direction to the light axis of the excitation light, was measured using a spectrophotometer (manufactured by Shimadzu Corporation, RF-1500). The maximum fluorescence wavelength was 651 nm.
# As a comparison to the liquid mixture of Brilliant Green and albumin, the maximum fluorescence wavelength of an albumin solution was measured with respect to an excitation wavelength of 625 nm, which was shown in FIG. 4.
# large intestine = experiment: Fluorescence observation of extracted large intestine stained with the dye, confocal microscope; set-up: species or system mouse
# Method: Brilliant Green (manufactured by Sigma-Aldrich Company, B4014-25G) was prepared as a solution using distilled water, and the concentration was adjusted to 1.0 mg/mL.
# A mouse (ddY, 13 weeks old, male) was subjected to laparotomy under anesthesia, and the large intestine was extracted. Immediately after extraction, the prepared solution of Brilliant Green was applied onto the large intestine, and fluorescence observation of the specimen by a confocal imaging system using a confocal microscope (manufactured by Leica Corp., TCPSP2) was performed. Here, the stainability, penetrability, and fluorescence properties of Brilliant Green were examined.
# Observation was performed for the cross-sections at every 5 μm from the luminal surface layer of the flesh specimen of extracted large intestine, to the depth direction (FIG. 5).
SMILES,maximum absorption wavelength [1],maximum fluorescence wavelength [1],maximum excitation wavelength [1],"maximum fluorescence wavelength ([2]; 0.01 mg/mL Brilliant Green with albumin, 0.1 M phosphate buffer pH 5, excitation 625 nm)",fluorescence when bound to albumin ([2]; light source in the red wavelength region),"depth to which observation could be sufficiently made from the luminal surface layer (large intestine; 1.0 mg/mL solution applied onto extracted mouse large intestine, cross-sections every 5 μm)","stainability of the tissue (cross-sectional images) (large intestine; 1.0 mg/mL, sites 10 μm and 15 μm deep from the surface layer)",fluorescence in solution state [1]
"CCN(Cc1cccc(S(=O)(=O)[O-])c1)c1ccc(C(=C2C=CC(=[N+](CC)Cc3cccc(S(=O)(=O)[O-])c3)C=C2)c2ccccc2S(=O)(=O)[O-])cc1.[Na+].[Na+] [Brilliant Blue FCF, reference compound]",629 nm,650 nm,619 nm,–,–,–,–,–
CCN(CC)c1ccc(C(=C2C=CC(=[N+](CC)CC)C=C2)c2ccccc2)cc1.O=S(=O)([O-])O [Brilliant Green],625 nm,625 nm,627 nm,651 nm,"emits fluorescence, when bound to albumin",35 μm,"The cytoplasm is well stained, while the interstitial space is contrastively dark",no fluorescence was detected
"CCN(CC)c1ccc2c(-c3ccccc3C(=O)O)c3ccc(=[N+](CC)CC)cc-3oc2c1.[Cl-] [Rhodamine B, reference compound]",–,–,–,–,–,–,–,exhibits intense fluorescence even in a solution state
